Source: patent publication US20230226198A1, “Artemisinin Derivatives” (DA ZEN THERANOSTICS, INC., priority 2019, published 2023)

Columns and labels:
Type in all cases: cell-based
DU145 cells = assay: MTT cell viability / IC50 assay, DU145; settings: Homo sapiens, DU-145; DU145, 48 h
Procedure: (§1) Cell culture: In the following examples, unless otherwise specified, all cell lines are purchased from American Type Culture Collection and cultured in American Type Culture Collection (ATCC)-recommended media, with fetal bovine serum (FBS) to a final concentration of 10% and 1× penicillin/streptomycin at 37° C. with 5% CO2 in a cell culture incubator, unless otherwise specified. Unless otherwise specified, culture is 2D. Where culture is 3D, low attachment plates are used, with the same media. C4-2B (ATCC® CRL-3315™, human prostate cancer cells of epithelial morphology) parental cell line and drug-resistant cells derived therefrom) are cultured in RPMI-1640 with 10% FBS. MDVR cells (an Enzalutamide-resistant variety of C4-2B prostate cancer cells formed as described below) are cultured as indicated for the parental C4-2B cells. Caki-1 cells (human clear cell renal cell carcinoma cells) are cultured in ATCC-formulated McCoy's 5a Medium Modified (ATCC Catalog No. 30-2007) with 10% FBS. […]
(§2) Each of the cell lines is treated either with a THAD (e.g. DZ-DHA-ether, MI-148-bis-DHA), or for comparison, with the DHA mono-ester “DZ-DHA”; alternatively/additionally, DZ1 and/or unconjugated DHA may serve as comparants. […] The absorbance density of the supernatant is read on a 96-well microplate reader at wavelength 595 nm. […]

BxPC3 cells = assay: MTT cell viability / IC50 assay, BxPC3; settings: Homo sapiens, BXPC-3; BxPC3, 48 h
Procedure: as §1, §2

H446 cells = assay: MTT cell viability / IC50 assay, H446; settings: Homo sapiens, NCI-H446, 48 h
Procedure: as §1, §2

| SMILES | IC50 (DU145 cells) | IC50 (BxPC3 cells) | IC50 (H446 cells) |
| --- | --- | --- | --- |
| C[C@@H]1CC[C@H]2[C@@H](C)C(OC(=O)CCCCCN3/C(=C/C=C4\CCCC(/C=C/C5=[N+](CCCCS(=O)(=O)[O-])c6ccccc6C5(C)C)=C4Cl)C(C)(C)c4ccccc43)O[C@@H]3OC4(C)CC[C@@H]1[C@]32OO4 (stereo in doubt) [DZ3a] | 8.1 µM | 9.8 µM | 12.6 µM |
| C[C@H]1[C@@H](O)O[C@@H]2O[C@@]3(C)CC[C@H]4[C@H](C)CC[C@@H]1[C@@]24OO3 [DHA, dihydroartemisinin] | 295 µM | 50.7 µM | 287 µM |
